Source: US7125903B1 (Aventis Pharmaceuticals Inc., priority 1999, dated 2006)
Structures can show the parent of a compound that is named as a salt. Where two headings read alike, the source gives them in different places.

Key:
MK801 Stereotypy = assay: MK-801 Stereotypy in Mice; assay type: in vivo; settings: Mus musculus, read-out: Antagonism of MK801 Stereotypy % Inhib. @ 20 mg/kg (route)
Description: Mk-801 dose-dependently induces characteristic stereotypy marked by locomotion and falling behavior. This MK-801 induced behavior can be antagonized by novel neuroleptic agents. This assay can also assess time course effects following drug administration.
CD-1 or C57 male mice are individually placed in activity boxes (8 mice/drug) and allowed to acclimate for 60 minutes. The mice are then administered test compounds either i.p., s.c., or p.o., at 15, 30, or 60 minutes prior to MK-801 (0.2 mg/kg) administration. Mice are observed for the presence of locomotion and falling behaviors 15 minutes following MK-801. For the duration of action studies the test compounds are administered i.p., s.c., or p.o., at 30, 60, 120, 180, and 240 minutes prior to MK-801 administration.

[1] = molecular target: T1, human D4 receptor (D4.2 sub-type) (Homo sapiens, UniProt P21917, DEL265-296); assay: D4 receptor binding assay (3H-spiperone displacement); settings: for inhibition at 1 µM: 1 μM test compound, inhibition of 3H-spiperone binding, read-out: D4 RBA % Inhib. @ 1 μM
T1 construct: expressed in transfected cells
T1 sequence (P21917 with tags, fused parts or gaps DEL265-296): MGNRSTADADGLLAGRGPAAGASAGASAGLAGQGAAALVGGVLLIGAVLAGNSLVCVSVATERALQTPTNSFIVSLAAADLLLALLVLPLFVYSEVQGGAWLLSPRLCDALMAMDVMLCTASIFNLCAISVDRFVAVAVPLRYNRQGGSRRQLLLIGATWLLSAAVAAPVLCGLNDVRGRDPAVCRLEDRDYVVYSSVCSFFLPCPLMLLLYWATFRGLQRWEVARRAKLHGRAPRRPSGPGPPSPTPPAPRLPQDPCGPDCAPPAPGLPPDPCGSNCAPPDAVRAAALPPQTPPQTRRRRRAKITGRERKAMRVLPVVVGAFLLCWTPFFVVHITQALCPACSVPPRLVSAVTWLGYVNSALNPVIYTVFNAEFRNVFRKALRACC
Description: D4 receptor-binding affinities of the compounds were evaluated according to their ability to reduce binding of ^3H-spiperone as compared to the reference compound clozapine. The potency of the test compound to reduce ^3H-spiperone binding directly correlated to its binding affinity for the receptor.
[…] (human embryonic kidney) cells stably transfected with human D4 receptor (D4.2 sub-type) were grown in NUNC cell factories for 5 days (75% confluency) without a media change and removed with versene (approximately 19 mg of cells per cell factory tray). The cells were then centrifuged in a Sorval centrifuge for 10 min, 5000 rpm (GS3 rotor) and the pellets quickly frozen in liquid nitrogen and stored at −80° C. until used in binding assay. When used in the assay, cells were thawed on ice for 20 min and then 10 mL of incubation buffer (50 mM Tris, 1 mM EDTA, 4 mM MgCl2, 5 mM KCl, 1.5 mM CaCl2, 120 mM NaCl, pH 7.4) was added. The cells were then vortexed to resuspend pellet and homogenized with a Kinematica, CH-6010 Kriens-LU, homogenizer for 15 seconds at setting 7. Concentration of receptor protein was determined using the Pierce BCA assay.
The incubation was started by the addition of 100 μl (50 μg protein) membrane homogenate to a solution of 300 μl incubation buffer and 100 μl (0.25 nM final conc.) ^3H-spiperone (90 Ci/mmol, Amersham, diluted in borosilicate glass vial) in 96-well polypropylene plates (1 mL per well). The plates were vortexed and incubated at room temperature for 90 minutes. The binding reaction was stopped by filtering using a Packard Harvester. The samples were filtered under vacuum over glass fibre filter plates (Whatman GF/B) presoaked for 2 hours in 0.3% polyethylenimine (PEI) in 50 mM Tris buffer (pH 7.4). The filters were then washed 6 times with 7 mL ice cold 50 mM Tris buffer (pH 7.4). The filter plates were dried overnight and 35 μl of Microscint-O (Packard) was added. The plates were sealed and counted in the Packard Top Count (3 minutes per well).
The incubation was started by the addition of 100 μl (50 μg protein) membrane homogenate to a solution of 200 μl incubation buffer, 100 μl ^3H-spiperone (90 Ci/mmol, Amersham, diluted in borosilicate glass vial to 0.25 nM final conc.) and 100 μl (30 μM final conc.) of fresh dopamine (Research Biochemicals Inc., light protected and dissolved in incubation buffer) in 96-well polypropylene plates (1 mL per well). The plates were vortexed and incubated at room temperature for 90 minutes at which time the binding reaction was stopped by filtering. The filters were washed and counted using the same procedure as in the total binding assay described above to give the nonspecific binding value (NSB).
The incubation was started by the addition, in 96-well polypropylene plates (1 mL per well), of 100 μl (50 μg protein) membrane homogenate to a solution of 200 μl incubation buffer, 100 μl (0.25 nM final conc.) ^3H-spiperone (90 Ci/mmol, Amersham, diluted in borosilicate glass vial) and 100 μl of test compound that was prepared from 1 mM stock dissolved in DMSO and stored at −20° C. in polypropylene cryogenic storage vials until dilution in incubation buffer in 96-well polypropylene plates. The plates were vortexed and incubated at room temperature for 90 minutes at which time the binding reaction was stopped by filtering. The filters were washed and counted using the same procedure as in the total binding assay described above to give the displacement binding value (BD).
The test compounds were initially assayed at 1 and 0.1 μM and then at a range of concentrations chosen such that the middle dose would cause about 50% inhibition of ^3H-spiperone binding. Specific binding in the absence of test compound (B0) was the difference of total binding (BT) minus non-specific binding (NSB) and similarly specific binding (in the presence of test compound) (B) was the difference of displacement binding (BD) minus non-specific binding (NSB). […]

[2] = molecular target: human D4 receptor with seven repeat units (D4.7 variant); settings: read-out: EC50 of dopamine; cited from earlier work
[3] = 20 mg/kg po, mice, MK-801 0.2 mg/kg

## C[C@@](O)(CNCc1cccs1)COc1cccc(-c2noc3ccsc23)c1.O=C(O)/C=C\C(=O)O [Compound 5, (2R)-2-methyl-1-(3-thieno[2,3-d]isoxazol-3-yl-phenoxy)-3-[thienophen-2-ylmethyl)-amino-propan-2-ol maleate]
MK801 Stereotypy; 20 mg/kg ip, mice, MK-801 0.2 mg/kg
  inhibition in vivo at 20 mg/kg: 37.5%
other
  melting point: 51 to 52 °C

## C[C@](O)(CNCc1ccccc1Cl)COc1cccc(-c2noc3ccsc23)c1 [Example 53]
[1]
  inhibition at 1 µM: 96%
MK801 Stereotypy; [3]
  inhibition in vivo at 20 mg/kg: 50%

## C[C@](O)(CNCc1ccc(Cl)c(Cl)c1)COc1cccc(-c2noc3ccsc23)c1 [Example 54]
[1]; 3H-spiperone 0.25 nM, membranes of HEK 298 cells with human D4.2, Cheng-Prusoff from IC50, read-out: D4 RBA Ki
  Ki: 0.013 µM
MK801 Stereotypy; [3]
  inhibition in vivo at 20 mg/kg: 62.5%

## Cc1ccc(CNC[C@](C)(O)COc2cccc(-c3noc4ccsc34)c2)cc1 [Example 58, hydrochloride]
[1]
  inhibition at 1 µM: 100%
MK801 Stereotypy; po
  inhibition in vivo at 20 mg/kg: 37.5%

## NCCc1ccc(O)c(O)c1 [dopamine]
[2]
  EC50: 0.04 µM
